Test results taken from US8765772B2, “Purine derivatives for use in the treatment of allergic, inflammatory and infectious diseases” (GlaxoSmithKline LLC, priority 2008, dated 2014).

Test system: TNF-α
Experiment: Induction of TNF-α using fresh human PBMCs
Type: cell-based
Conditions: PBMC, 24 hr incubation, relative to 2 μM resiquimod control, read-out: mean pEC50 for induction of TNF-α (converted)
Experimental: Assay for the Induction of Interferon-α and TNF-α using Fresh Human Peripheral Blood Mononuclear Cells (PBMCs)
Compounds were dissolved and serially diluted in DMSO to give 100× the required concentration range using a Biomek 2000. 1 ul of test compound was transferred into 96-well tissue culture plates using a Biomek FX. Each compound was assayed in duplicate for each donor. Each plate contained a dilution series of the TLR7/8 agonist resiquimod as standard and Column 11 contained 1 μl of 200 μM resiquimod (giving a 2 μM final concentration, used to define the approximate maximal response to resiquimod).
Blood samples from two human donors were collected into sodium heparin (10 U/ml). 25 ml volumes of whole blood were overlaid onto 15 mls Histopaque in Leucosep tubes which were centrifuged at 800 g for 20 min and the band at the plasma/histopaque interface carefully removed. The collected cells were centrifuged at 2500 rpm for 10 min and the pellet resuspended in 10 ml of media (RPMI 1640 (Low endotoxin) supplemented with 10% v/v foetal calf serum (FCS, low endotoxin) 100 U/ml penicillin G, 100 μg/ml streptomycin, 10 mM L-glutamine and 1× non-essential amino acids). A 1:20 dilution of the cells was prepared using trypan blue & the cells counted using a haemocytometer. The PBMCs were diluted to give a final concentration of 2×10^6/ml and 100 ul of this cells suspension was added to wells containing 1 μl of diluted test compound.
Incubation and Assays for Interferon-α and TNF-α
The cell preparations were incubated for 24 hr (37° C., 95% air, 5% CO2) after which a sample of the supernatant was removed using the Biomek FX and assayed for both IFN-α and TNF-α using the MSD (Mesoscale Discovery) electrochemiluminescence assay platform. The IFN-α assay was carried out similarly to that described above. The TNF-α assay was carried out as per kit instructions (Cat No K111BHB). Cytokine released was expressed as a percentage of the 2 μM resiquimod control (column 11). This percentage was plotted against compound concentration and the pEC50 for the response determined by non-linear least squares curve fitting. For the IFN-α responses generally a 4 parameter logistic model was selected. For the TNF responses where a clear maximum response was obtained (i.e. a well defined plateau in the response was observed) then a 4 parameter model was generally used. If the upper asymptote of the curve wasn't well defined then the curve fitting was generally constrained to a maximal response of 100% (i.e. to the response to 2 μM resiquimod) or to the response of the highest concentration tested if this was greater than the resiquimod response. Some curves were bell shaped for one or both cytokines and the cytokine data on the down slope of the bell shaped response (i.e. concentrations above those giving the maximal response) were generally excluded from the fit, usually with the exception of the concentration immediately above the peak response. Curve fitting thus concentrated on the up slope of the dose response curve.

SMILES	EC50
CCCCOc1nc(N)c2[nH]c(=O)n(CCCCCCN3CCCCCC3)c2n1 [Example 15, 6-Amino-2-(butyloxy)-9-[6-(hexahydro-1H-azepin-1-yl)hexyl]-7,9-dihydro-8H-purin-8-one]	≥ 1000 nM
CCC[C@H](C)Oc1nc(N)c2[nH]c(=O)n(CCCCN3CCCCC3)c2n1 [Example 20, 6-Amino-2-{[(1S)-1-methylbutyl]oxy}-9-[4-(1-piperidinyl)butyl]-7,9-dihydro-8H-purin-8-one]	≥ 1000 nM
CCC[C@H](C)Oc1nc(N)c2[nH]c(=O)n(CCCCCN3CCCCCC3)c2n1 [Example 23, 6-Amino-9-[5-(hexahydro-1H-azepin-1-yl)pentyl]-2-{[(1S)-1-methylbutyl]oxy}-7,9-dihydro-8H-purin-8-one]	≥ 1000 nM
CCCCOc1nc(N)c2[nH]c(=O)n(CCCCCCN3CCCC3)c2n1 [Example 13, 6-Amino-2-(butyloxy)-9-[6-(1-pyrrolidinyl)hexyl]-7,9-dihydro-8H-purin-8-one]	≥ 1000 nM
CCC[C@H](C)Oc1nc(N)c2[nH]c(=O)n(CCCCCN3CCCCC3)c2n1 [Example 22, 6-Amino-2-{[(1S)-1-methylbutyl]oxy}-9-[5-(1-piperidinyl)pentyl]-7,9-dihydro-8H-purin-8-one]	≥ 1000 nM
CCC[C@H](C)Oc1nc(N)c2[nH]c(=O)n(CCCCN3CCCCCC3)c2n1 [Example 21, 6-Amino-9-[4-(hexahydro-1H-azepin-1-yl)butyl]-2-{[(1S)-1-methylbutyl]oxy}-7,9-dihydro-8H-purin-8-one]	≥ 1000 nM
